Measured values: PubChem BioAssay (NCI)
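Tested at 5 concentrations; 48 h exposure; 96-well plates; endpoints linearly interpolated, else capped at highest concentration. The concentration for full growth arrest is given as TGI.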

What was measured:
Assay in all cases: NCI anticancer screen, dose series, 48 h
LOX IMVI melanoma = test system: LOX IMVI melanoma
SN12C renal = test system: SN12C renal
DLD-1 colon = test system: DLD-1 colon
IGROV1 ovarian = test system: IGROV1 ovarian
SF-539 CNS = test system: SF-539 CNS
DMS 273 small cell lung = test system: DMS 273 small cell lung
OVCAR-4 ovarian = test system: OVCAR-4 ovarian
OVCAR-5 ovarian = test system: OVCAR-5 ovarian
DMS 114 small cell lung = test system: DMS 114 small cell lung
HOP-18 NSCLC = test system: HOP-18 NSCLC
LXFL 529 NSCLC = test system: LXFL 529 NSCLC
SNB-19 CNS = test system: SNB-19 CNS
NCI-H460 lung = test system: NCI-H460 lung
RPMI-8226 leukemia = test system: RPMI-8226 leukemia
COLO 205 colon = test system: COLO 205 colon
SNB-75 CNS = test system: SNB-75 CNS
SK-MEL-28 melanoma = test system: SK-MEL-28 melanoma
SNB-78 CNS = test system: SNB-78 CNS
HL-60(TB) leukemia = test system: HL-60(TB) leukemia
MOLT-4 leukemia = test system: MOLT-4 leukemia
HCT-116 colon = test system: HCT-116 colon
EKVX NSCLC = test system: EKVX NSCLC
HCC-2998 colon = test system: HCC-2998 colon
ACHN renal = test system: ACHN renal
U251 CNS = test system: U251 CNS
SF-295 CNS = test system: SF-295 CNS
CCRF-CEM leukemia = test system: CCRF-CEM leukemia
RXF 393 renal = test system: RXF 393 renal
A549 NSCLC = test system: A549 NSCLC
TK-10 renal = test system: TK-10 renal
SW-620 colon = test system: SW-620 colon
M14 melanoma = test system: M14 melanoma
SF-268 CNS = test system: SF-268 CNS
HOP-62 NSCLC = test system: HOP-62 NSCLC
A498 renal = test system: A498 renal
KM20L2 colon = test system: KM20L2 colon
SK-MEL-2 melanoma = test system: SK-MEL-2 melanoma
XF 498 CNS = test system: XF 498 CNS
OVCAR-3 ovarian = test system: OVCAR-3 ovarian
HCT-15 colon = test system: HCT-15 colon
CAKI-1 renal = test system: CAKI-1 renal
NCI-H23 lung = test system: NCI-H23 lung
KM12 colon = test system: KM12 colon
HT29 colon = test system: HT29 colon
NCI-H226 lung = test system: NCI-H226 lung
UACC-62 melanoma = test system: UACC-62 melanoma
SR leukemia = test system: SR leukemia
MALME-3M melanoma = test system: MALME-3M melanoma
HOP-92 NSCLC = test system: HOP-92 NSCLC
K-562 leukemia = test system: K-562 leukemia
NCI-H522 lung = test system: NCI-H522 lung
SK-MEL-5 melanoma = test system: SK-MEL-5 melanoma
786-0 renal = test system: 786-0 renal
UACC-257 melanoma = test system: UACC-257 melanoma
UO-31 renal = test system: UO-31 renal
OVCAR-8 ovarian = test system: OVCAR-8 ovarian
SK-OV-3 ovarian = test system: SK-OV-3 ovarian
M19-MEL melanoma = test system: M19-MEL melanoma

Compound: NC1=NN(c2ccccc2)C(=O)C1/C(=N\NC(=O)c1cc2ccccc2cc1O)C(=O)Nc1ccc(Cl)c(Cl)c1 (stereo not given)
- TGI (LOX IMVI melanoma): > 100 µM
- TGI (SN12C renal): > 100 µM
- TGI (DLD-1 colon): > 100 µM
- TGI (IGROV1 ovarian): > 100 µM
- TGI (SF-539 CNS): > 100 µM
- TGI (DMS 273 small cell lung): 40.7 µM
- TGI (OVCAR-4 ovarian): > 100 µM
- TGI (OVCAR-5 ovarian): > 100 µM
- TGI (DMS 114 small cell lung): 82 µM
- TGI (HOP-18 NSCLC): > 100 µM
- TGI (LXFL 529 NSCLC): > 100 µM
- TGI (SNB-19 CNS): > 100 µM
- TGI (NCI-H460 lung): 85.5 µM
- TGI (RPMI-8226 leukemia): > 100 µM
- TGI (COLO 205 colon): 36.6 µM
- TGI (SNB-75 CNS): > 100 µM
- TGI (SK-MEL-28 melanoma): > 100 µM
- TGI (SNB-78 CNS): > 100 µM
- TGI (HL-60(TB) leukemia): 39.8 µM
- TGI (MOLT-4 leukemia): 75.6 µM
- TGI (HCT-116 colon): > 100 µM
- TGI (EKVX NSCLC): 63.6 µM
- TGI (HCC-2998 colon): > 100 µM
- TGI (ACHN renal): > 100 µM
- TGI (U251 CNS): > 100 µM
- TGI (SF-295 CNS): > 100 µM
- TGI (CCRF-CEM leukemia): 57.7 µM
- TGI (RXF 393 renal): > 100 µM
- TGI (A549 NSCLC): > 100 µM
- TGI (TK-10 renal): > 100 µM
- TGI (SW-620 colon): > 100 µM
- TGI (M14 melanoma): 72.5 µM
- TGI (SF-268 CNS): > 100 µM
- TGI (HOP-62 NSCLC): > 100 µM
- TGI (A498 renal): > 100 µM
- TGI (KM20L2 colon): 65.8 µM
- TGI (SK-MEL-2 melanoma): > 100 µM
- TGI (XF 498 CNS): 71.6 µM
- TGI (OVCAR-3 ovarian): 54.8 µM
- TGI (HCT-15 colon): > 100 µM
- TGI (CAKI-1 renal): > 100 µM
- TGI (NCI-H23 lung): 63.5 µM
- TGI (KM12 colon): > 100 µM
- TGI (HT29 colon): > 100 µM
- TGI (NCI-H226 lung): > 100 µM
- TGI (UACC-62 melanoma): 44.1 µM
- TGI (SR leukemia): 5.71 µM
- TGI (MALME-3M melanoma): 97.6 µM
- TGI (HOP-92 NSCLC): 92 µM
- TGI (K-562 leukemia): > 100 µM
- TGI (NCI-H522 lung): 37.2 µM
- TGI (SK-MEL-5 melanoma): 79.4 µM
- TGI (786-0 renal): > 100 µM
- TGI (UACC-257 melanoma): 84 µM
- TGI (UO-31 renal): > 100 µM
- TGI (OVCAR-8 ovarian): > 100 µM

Compound: Oc1ccccc1-c1cnnc(-c2ccccc2O)c1
- TGI (LOX IMVI melanoma): 41 µM
- TGI (SN12C renal): > 100 µM
- TGI (DLD-1 colon): > 100 µM
- TGI (SF-539 CNS): 65.1 µM
- TGI (OVCAR-4 ovarian): > 100 µM
- TGI (OVCAR-5 ovarian): 61.8 µM
- TGI (DMS 114 small cell lung): 38.3 µM
- TGI (HOP-18 NSCLC): 96.6 µM
- TGI (LXFL 529 NSCLC): 58.2 µM
- TGI (RPMI-8226 leukemia): 51.2 µM
- TGI (COLO 205 colon): 41.7 µM
- TGI (SNB-75 CNS): 51.6 µM
- TGI (SK-OV-3 ovarian): 72.8 µM
- TGI (SK-MEL-28 melanoma): 88.3 µM
- TGI (SNB-78 CNS): > 100 µM
- TGI (HL-60(TB) leukemia): 44.1 µM
- TGI (MOLT-4 leukemia): 66.5 µM
- TGI (HCT-116 colon): 44.2 µM
- TGI (EKVX NSCLC): 92.9 µM
- TGI (ACHN renal): 83.5 µM
- TGI (CCRF-CEM leukemia): 36.5 µM
- TGI (RXF 393 renal): 56.5 µM
- TGI (TK-10 renal): > 100 µM
- TGI (SW-620 colon): > 100 µM
- TGI (M14 melanoma): 43.3 µM
- TGI (SF-268 CNS): > 100 µM
- TGI (KM20L2 colon): 84.3 µM
- TGI (SK-MEL-2 melanoma): 43.6 µM
- TGI (XF 498 CNS): 32.3 µM
- TGI (OVCAR-3 ovarian): 44.6 µM
- TGI (CAKI-1 renal): 65.2 µM
- TGI (HT29 colon): 64.3 µM
- TGI (NCI-H226 lung): 73.9 µM
- TGI (UACC-62 melanoma): 34 µM
- TGI (SR leukemia): 75.1 µM
- TGI (MALME-3M melanoma): 64.7 µM
- TGI (HOP-92 NSCLC): 49.9 µM
- TGI (K-562 leukemia): > 100 µM
- TGI (NCI-H522 lung): 41.3 µM
- TGI (M19-MEL melanoma): 61.8 µM
- TGI (786-0 renal): 36.6 µM
- TGI (UACC-257 melanoma): 53.5 µM
- TGI (UO-31 renal): 44.3 µM
- TGI (OVCAR-8 ovarian): 57.4 µM
